{"source": "patent US20220323406A1", "about": "“METHODS AND COMPOSITIONS FOR DIFFERENTIATING STEM CELLS” (Massachusetts Institute of Technology, priority 2019, published 2022);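 on Dose.FC.CTG (log2 fold change): compounds given at plating and again on day 3 over a 6-day differentiation from ENR+CV stem-cell-enriched precursors, ATP measured on day 6, plate median as control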;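 on Dose.FC.CTG: compounds given at plating and again on day 3 over a 6-day differentiation from ENR+CV stem-cell-enriched precursors, ATP measured on day 6, plate median as control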;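 on Z.CTG (standard z score): compounds given at plating and again on day 3 over a 6-day differentiation from ENR+CV stem-cell-enriched precursors, ATP measured on day 6, plate median as control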;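 on Z.CTG: compounds given at plating and again on day 3 over a 6-day differentiation from ENR+CV stem-cell-enriched precursors, ATP measured on day 6, plate median as control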", "key": {"[1]": {"system": "ENR+CD organoids (ISC to Paneth cell differentiation)", "test": "Primary screen: basal (non-stimulated) lysozyme secretion LYZ.NS, 2.5-D 384-well ENR+CD organoid differentiation", "format": "cell-based, mouse", "text": "(§1) High-throughput screening."}, "[2]": {"system": "ENR+CD organoids (ISC to Paneth cell differentiation)", "test": "Primary screen: CCh-stimulated lysozyme secretion LYZ.S, 2.5-D 384-well ENR+CD organoid differentiation", "format": "cell-based, mouse", "settings": "primary screen", "text": "as §1"}, "ENR+CD organoids": {"system": "ENR+CD organoids", "test": "Primary screen: ATP (CellTiter-Glo 3D, CTG) cell number/viability, 2.5-D 384-well ENR+CD organoids", "settings": "primary screen; for Z.CTG: standard z score"}, "[3]": {"settings": "dose 0.08 uM, FC relative to plate median"}, "[4]": {"settings": "dose 0.40 uM, FC relative to plate median"}, "[5]": {"settings": "dose 2.00 uM, FC relative to plate median"}, "[6]": {"settings": "dose 10.00 uM, FC relative to plate median"}}}
{"smiles": "CN(C)CCc1c[nH]c2ccc(Cn3cncn3)cc12", "note": "[Rizatriptan Benzoate]", "values": [{"measurement": "Dose.FC.LYZ.NS", "setting": "[1]; primary screen, dose 0.08 uM, FC relative to plate median", "result": 0.070, "unit": "log2 fold change"}, {"measurement": "Z.LYZ.NS", "setting": "[1]; primary screen, dose 0.08 uM, standard z score", "result": 0.613}, {"measurement": "Dose.FC.LYZ.NS", "setting": "[1]; primary screen, dose 0.40 uM, FC relative to plate median", "result": 0.148, "unit": "log2 fold change"}, {"measurement": "Z.LYZ.NS", "setting": "[1]; primary screen, dose 0.40 uM, standard z score", "result": 1.289}, {"measurement": "Dose.FC.LYZ.NS", "setting": "[1]; primary screen, dose 2.00 uM, FC relative to plate median", "result": 0.027, "unit": "log2 fold change"}, {"measurement": "Z.LYZ.NS", "setting": "[1]; primary screen, dose 2.00 uM, standard z score", "result": 0.238}, {"measurement": "Dose.FC.LYZ.NS", "setting": "[1]; primary screen, dose 10.00 uM, FC relative to plate median", "result": 0.000, "unit": "log2 fold change"}, {"measurement": "Z.LYZ.NS", "setting": "[1]; primary screen, dose 10.00 uM, standard z score", "result": "−0.003"}, {"measurement": "Dose.FC.LYZ.S", "setting": "[2]; [3]", "result": 0.179, "unit": "log2 fold change"}, {"measurement": "Dose.FC.LYZ.S", "setting": "[2]; [4]", "result": 0.019, "unit": "log2 fold change"}, {"measurement": "Dose.FC.LYZ.S", "setting": "[2]; [5]", "result": "−0.009", "unit": "log2 fold change"}, {"measurement": "Dose.FC.LYZ.S", "setting": "[2]; [6]", "result": 0.105, "unit": "log2 fold change"}, {"measurement": "Dose.FC.CTG", "setting": "ENR+CD organoids; [3]", "result": 0.214, "unit": "log2 fold change"}, {"measurement": "Dose.FC.CTG", "setting": "ENR+CD organoids; [4]", "result": 0.109, "unit": "log2 fold change"}, {"measurement": "Dose.FC.CTG", "setting": "ENR+CD organoids; [5]", "result": 0.126, "unit": "log2 fold change"}, {"measurement": "Dose.FC.CTG", "setting": "ENR+CD organoids; [6]", "result": "−0.054", "unit": "log2 fold change"}]}
{"smiles": "O=C(O)c1cc2cccc([N+](=O)[O-])c2[nH]1", "note": "[CRT0044876]", "values": [{"measurement": "Dose.FC.LYZ.NS", "setting": "[1]; primary screen, dose 0.08 uM", "result": 0.016, "unit": "log2 fold change"}, {"measurement": "Dose.FC.LYZ.NS", "setting": "[1]; primary screen, dose 0.40 uM", "result": 0.034, "unit": "log2 fold change"}, {"measurement": "Dose.FC.LYZ.NS", "setting": "[1]; primary screen, dose 2.00 uM", "result": 0.047, "unit": "log2 fold change"}, {"measurement": "Dose.FC.LYZ.NS", "setting": "[1]; primary screen, dose 10.00 uM", "result": 0.032, "unit": "log2 fold change"}, {"measurement": "Z.LYZ.NS", "setting": "[1]; primary screen, standard z score, dose 0.08 uM", "result": 0.135}, {"measurement": "Z.LYZ.NS", "setting": "[1]; primary screen, standard z score, dose 0.40 uM", "result": 0.298}, {"measurement": "Z.LYZ.NS", "setting": "[1]; primary screen, standard z score, dose 2.00 uM", "result": 0.408}, {"measurement": "Z.LYZ.NS", "setting": "[1]; primary screen, standard z score, dose 10.00 uM", "result": 0.278}, {"measurement": "Dose.FC.LYZ.S", "setting": "[2]; dose 0.08 uM", "result": "−0.002", "unit": "log2 fold change"}, {"measurement": "Dose.FC.LYZ.S", "setting": "[2]; dose 0.40 uM", "result": 0.055, "unit": "log2 fold change"}, {"measurement": "Dose.FC.LYZ.S", "setting": "[2]; dose 2.00 uM", "result": 0.014, "unit": "log2 fold change"}, {"measurement": "Dose.FC.LYZ.S", "setting": "[2]; dose 10.00 uM", "result": "−0.061", "unit": "log2 fold change"}, {"measurement": "Dose.FC.CTG", "setting": "ENR+CD organoids; dose 0.08 uM", "result": "−0.171", "unit": "log2 fold change"}, {"measurement": "Dose.FC.CTG", "setting": "ENR+CD organoids; dose 0.40 uM", "result": "−0.040", "unit": "log2 fold change"}, {"measurement": "Dose.FC.CTG", "setting": "ENR+CD organoids; dose 2.00 uM", "result": "−0.081", "unit": "log2 fold change"}, {"measurement": "Dose.FC.CTG", "setting": "ENR+CD organoids; dose 10.00 uM", "result": "−0.099", "unit": "log2 fold change"}, {"measurement": "Z.CTG", "setting": "ENR+CD organoids; dose 0.08 uM", "result": "−0.410"}, {"measurement": "Z.CTG", "setting": "ENR+CD organoids; dose 0.40 uM", "result": "−0.096"}, {"measurement": "Z.CTG", "setting": "ENR+CD organoids; dose 2.00 uM", "result": "−0.192"}, {"measurement": "Z.CTG", "setting": "ENR+CD organoids; dose 10.00 uM", "result": "−0.237"}]}
{"smiles": "N#CC1(c2ccc(NC(=O)c3cccnc3NCc3ccncc3)cc2)CCCC1", "note": "[Apatinib]", "values": [{"measurement": "Dose.FC.LYZ.NS", "setting": "[1]; primary screen, dose 0.08 uM", "result": 0.103, "unit": "log2 fold change"}, {"measurement": "Z.LYZ.NS (standard z score)", "setting": "[1]; primary screen, dose 0.08 uM", "result": 0.897}, {"measurement": "Dose.FC.LYZ.NS", "setting": "[1]; primary screen, dose 0.40 uM", "result": 0.038, "unit": "log2 fold change"}, {"measurement": "Z.LYZ.NS (standard z score)", "setting": "[1]; primary screen, dose 0.40 uM", "result": 0.327}, {"measurement": "Dose.FC.LYZ.NS", "setting": "[1]; primary screen, dose 2.00 uM", "result": 0.076, "unit": "log2 fold change"}, {"measurement": "Z.LYZ.NS (standard z score)", "setting": "[1]; primary screen, dose 2.00 uM", "result": 0.660}, {"measurement": "Dose.FC.LYZ.NS", "setting": "[1]; primary screen, dose 10.00 uM", "result": 0.012, "unit": "log2 fold change"}, {"measurement": "Z.LYZ.NS (standard z score)", "setting": "[1]; primary screen, dose 10.00 uM", "result": 0.101}, {"measurement": "Dose.FC.LYZ.S", "setting": "[2]; dose 0.08 uM", "result": 0.173, "unit": "log2 fold change"}, {"measurement": "Dose.FC.LYZ.S", "setting": "[2]; dose 0.40 uM", "result": 0.142, "unit": "log2 fold change"}, {"measurement": "Dose.FC.LYZ.S", "setting": "[2]; dose 2.00 uM", "result": 0.112, "unit": "log2 fold change"}, {"measurement": "Dose.FC.LYZ.S", "setting": "[2]; dose 10.00 uM", "result": 0.075, "unit": "log2 fold change"}, {"measurement": "Dose.FC.CTG", "setting": "ENR+CD organoids; dose 0.08 uM", "result": 0.223, "unit": "log2 fold change"}, {"measurement": "Dose.FC.CTG", "setting": "ENR+CD organoids; dose 0.40 uM", "result": 0.302, "unit": "log2 fold change"}, {"measurement": "Dose.FC.CTG", "setting": "ENR+CD organoids; dose 2.00 uM", "result": 0.270, "unit": "log2 fold change"}, {"measurement": "Dose.FC.CTG", "setting": "ENR+CD organoids; dose 10.00 uM", "result": 0.218, "unit": "log2 fold change"}]}
{"smiles": "CNC(=O)[C@H](Cc1c[nH]c2ccccc12)NC(=O)[C@@H](CC(=O)NO)CC(C)C", "note": "[Ilomastat (GM6001, Galardin)]", "values": [{"measurement": "Dose.FC.LYZ.NS (log2 fold change)", "setting": "[1]; primary screen, dose 0.08 uM", "result": 0.055}, {"measurement": "Z.LYZ.NS (standard z score)", "setting": "[1]; primary screen, dose 0.08 uM", "result": 0.482}, {"measurement": "Dose.FC.LYZ.NS (log2 fold change)", "setting": "[1]; primary screen, dose 0.40 uM", "result": "−0.011"}, {"measurement": "Z.LYZ.NS (standard z score)", "setting": "[1]; primary screen, dose 0.40 uM", "result": "−0.092"}, {"measurement": "Dose.FC.LYZ.NS (log2 fold change)", "setting": "[1]; primary screen, dose 2.00 uM", "result": 0.007}, {"measurement": "Z.LYZ.NS (standard z score)", "setting": "[1]; primary screen, dose 2.00 uM", "result": 0.064}, {"measurement": "Dose.FC.LYZ.NS (log2 fold change)", "setting": "[1]; primary screen, dose 10.00 uM", "result": "−0.106"}, {"measurement": "Z.LYZ.NS (standard z score)", "setting": "[1]; primary screen, dose 10.00 uM", "result": "−0.919"}, {"measurement": "Dose.FC.LYZ.S (log2 fold change)", "setting": "[2]; dose 0.08 uM", "result": 0.214}, {"measurement": "Dose.FC.LYZ.S (log2 fold change)", "setting": "[2]; dose 0.40 uM", "result": 0.117}, {"measurement": "Dose.FC.LYZ.S (log2 fold change)", "setting": "[2]; dose 2.00 uM", "result": 0.024}, {"measurement": "Dose.FC.LYZ.S (log2 fold change)", "setting": "[2]; dose 10.00 uM", "result": "−0.078"}, {"measurement": "Dose.FC.CTG (log2 fold change)", "setting": "ENR+CD organoids; dose 0.08 uM", "result": 0.197}, {"measurement": "Z.CTG (standard z score)", "setting": "ENR+CD organoids; dose 0.08 uM", "result": 0.470}, {"measurement": "Dose.FC.CTG (log2 fold change)", "setting": "ENR+CD organoids; dose 0.40 uM", "result": 0.163}, {"measurement": "Z.CTG (standard z score)", "setting": "ENR+CD organoids; dose 0.40 uM", "result": 0.389}, {"measurement": "Dose.FC.CTG (log2 fold change)", "setting": "ENR+CD organoids; dose 2.00 uM", "result": 0.091}, {"measurement": "Z.CTG (standard z score)", "setting": "ENR+CD organoids; dose 2.00 uM", "result": 0.216}, {"measurement": "Dose.FC.CTG (log2 fold change)", "setting": "ENR+CD organoids; dose 10.00 uM", "result": "−0.110"}, {"measurement": "Z.CTG (standard z score)", "setting": "ENR+CD organoids; dose 10.00 uM", "result": "−0.264"}]}
